Measurements published in patent US20110152090A1, “HERBICIDAL COMPOSITIONS COMPRISING FLUFENACET” (Bayer CropScience AG, priority 2009, published 2011).

Experiments:
Assay type in all cases: in vivo
[1] = tested on: LOLPE (Lolium perenne); experiment: Greenhouse trial: different irrigation systems (test method 7); details: g of AS/ha: (A) 120, (B) 1200, (C) 90
Description: (§1) In the standard design of the test, seeds of various broad-leaved weed and weed grass biotypes (origins) were sown in a 8-13 cm diameter pot filled with natural soil of a standard field soil (loamy silt; non-sterile) and covered with a covering soil layer of about 1 cm. The pots were then cultivated in a greenhouse (12-16 h of light, temperature day 20-22° C., night 15-18° C.) until the time of application. The pots were treated on a laboratory track sprayer with spray liquors comprising the compositions according to the invention, mixtures of the prior art or components used individually. Application of the active compounds or active compound combinations formulated as WG, WP, EC or otherwise was carried out at the appropriate growth stages of the plants. The application rate for the spray application was 100-600 l of water/ha. After the treatment, the plants were returned to the greenhouses.
(§2) About 3 weeks after the application, the soil action or/and foliar action was assessed visually according to a scale of 0-100% in comparison to an untreated comparative group: 0%=no noticeable effect compared to the untreated comparative group; 100%=full effect compared to the untreated comparative group.
(§3) (notes: the term “seeds” also includes vegetative propagation forms such as, for example, rhizome pieces; abbreviations used: h light=hours of illumination, g of AS/ha=gram of active substance per hectare, l/ha=liter per hectare, S=sensitive, R=resistant) • 1. Pre-emergence action against weeds: seeds of various broad-leaved weed and weed grass biotypes (origins) were sown in a 8-13 cm diameter pot filled with natural soil of a standard field soil (loamy silt; non-sterile) and covered with a covering soil layer of about 1 cm. The pots were then cultivated in a greenhouse (12-16 h of light, temperature day 20-22° C., night 15-18° C.) until the time of application. The pots were treated at the BBCH stage 00-10 of the seeds/plants on a laboratory track sprayer with spray liquors comprising the compositions according to the invention, mixtures or components used individually, as WG, WP, EC or other formulations. The application rate for the spray application was 100-600 l of water/ha. After the treatment, the plants were returned to the greenhouses and, when required, treated with fertilizer and watered. • 2. Post-emergence action against weeds: seeds of various broad-leaved weed and weed grass biotypes (origins) were sown in a 8-13 cm diameter pot filled with natural soil of a standard field soil (loamy silt; non-sterile) and covered with a covering soil layer of about 1 cm. The pots were then cultivated in a greenhouse (12-16 h of light, temperature day 20-22° C., night 15-18° C.) until the time of application. The pots were treated at various BBCH stages between 11-25 of the seeds/plants, i.e. generally between two to three weeks after the start of the cultivation, on a laboratory track sprayer with spray liquors comprising the compositions according to the invention, mixtures or components used individually, as WG, WP, EC or other formulations. The application rate for the spray application was 100-600 l of water/ha. After the treatment, the plants were returned to the greenhouses and, when required, treated with fertilizer and watered. • 3. Pre-emergence action against weeds with and without incorporation of active compound: seeds of various broad-leaved weed and weed grass biotypes (origins) were sown in a 8-13 cm diameter pot filled with natural soil of a standard field soil (loamy silt; non-sterile). […]

[2] = tested on: AVEFA (Avena fatua); experiment: as above; details: g of AS/ha: (A) 120, (B) 1200, (C) 90
Description: as §1, §2, §3

[3] = tested on: MATCH (Matricaria chamomilla); experiment: as above; details: g of AS/ha: (A) 120, (B) 1200, (C) 90
Description: as §1, §2, §3

[4] = tested on: TRZAS (Triticum aestivum, summer wheat); experiment: Greenhouse trial: pre-sowing application vs PE application (test method 6), crop, pre-sowing part; details: application 7 days prior to sowing; g AS/ha: (A) 90, (B) 1200, (C) 90
Description: as §1, §2
(§4) (notes: the term “seeds” also includes vegetative propagation forms such as, for example, rhizome pieces; abbreviations used: h light=hours of illumination, g of AS/ha=gram of active substance per hectare, l/ha=liter per hectare, S=sensitive, R=resistant) • 1. Pre-emergence action against weeds: seeds of various broad-leaved weed and weed grass biotypes (origins) were sown in a 8-13 cm diameter pot filled with natural soil of a standard field soil (loamy silt; non-sterile) and covered with a covering soil layer of about 1 cm. The pots were then cultivated in a greenhouse (12-16 h of light, temperature day 20-22° C., night 15-18° C.) until the time of application. […]

[5] = tested on: LOLSS (Lolium species), sensitive and resistant; experiment: Greenhouse trial: resistant biotypes, PE application (test method 9); details: g of AS/ha: (A) 90, (B) 1200, (C) 90, iodosulfuron 10
Description: as §1, §2, §3

[6] = tested on: STEME (Stellaria media), sensitive and resistant; experiment: as above; details: g of AS/ha: (A) 90, (B) 1200, (C) 90, iodosulfuron 10
Description: as §1, §2, §3

[7] = tested on: MATCH (Matricaria chamomilla), sensitive and resistant; experiment: as above; details: g of AS/ha: (A) 90, (B) 1200, (C) 90, iodosulfuron 10
Description: as §1, §2, §3

[8] = tested on: HORVS (Hordeum vulgare, summer barley); experiment: Greenhouse trial: pre-sowing application vs PE application (test method 6), crop, PE part; details: PE application; g of AS/ha: (A) 90, (B) 1200, (C) 90
Description: as §1, §2, §4

[9] = tested on: APESV (Apera Spica-venti); experiment: Greenhouse trial: different sowing depths, PE application (test method 10); details: g of AS/ha: (A) 90, (B) 1200, (C) 90
Description: as §1, §2, §3

[10] = tested on: MATCH (Matricaria chamomilla); experiment: as above; details: g of AS/ha: (A) 90, (B) 1200, (C) 90
Description: as §1, §2, §3

[11] = tested on: LOLPE (Lolium perenne); experiment: Greenhouse trial: different soil types (test method 8); details: g of AS/ha: (A) 120, (B) 1200, (C) 90
Description: as §1, §2, §3

[12] = tested on: MATCH (Matricaria chamomilla); experiment: as above; details: g of AS/ha: (A) 120, (B) 1200, (C) 90
Description: as §1, §2, §3

[13] = tested on: TRZAS (Triticum aestivum, summer wheat); experiment: Greenhouse trial: crop selectivity, PE soil application vs incorporation (test methods 3, 4); details: g of AS/ha: (A) 90, (B) 1200, (C) 90, (D) 300
Description: as §1
as §2, with “group. […]” for “group.”

[14] = tested on: HORVS (Hordeum vulgare, summer barley); experiment: Greenhouse trial: selective PO action (test method 5); details: PO application; g of AS/ha: (A) 120, (B) 1600, (C) 120
Description: as §1, §2, §4

[15] = tested on: APESV (Apera Spica-venti); experiment: Greenhouse trial: PO application (test method 2); details: g of AS/ha: (A) 120, (B) 1600, (C) 120
Description: as §1, §2, §3

[16] = tested on: POAAN (Poa annua); experiment: Greenhouse trial: PO application (test method 2); details: g of AS/ha: (A) 120, (B) 1600, (C) 120
Description: as §1, §2, §3

[17] = tested on: STEME (Stellaria media); experiment: Greenhouse trial: PO application (test method 2); details: g of AS/ha: (A) 120, (B) 1600, (C) 120
Description: as §1, §2, §3

[18] = tested on: LOLPE (Lolium perenne); experiment: Greenhouse trial: pre-sowing application vs PE application (test method 6)
Description: as §1, §2, §3

[19] = tested on: AVEFA (Avena fatua); experiment: as above
Description: as §1, §2, §3

[20] = tested on: POAAN (Poa annua); experiment: Greenhouse trial: PE soil application vs incorporation into the soil (test methods 1, 3); details: g of AS/ha: (A) 90, (B) 1200, (C) 90, (D) 300
Description: as §1, §2, §3

[21] = tested on: STEME (Stellaria media); experiment: as above; details: g of AS/ha: (A) 90, (B) 1200, (C) 90, (D) 300
Description: as §1, §2, §3

[22] = tested on: HORVS (Hordeum vulgare, summer barley); experiment: Greenhouse trial: different soil types (test method 8), crop; details: g AS/ha: (A) 120, (B) 1200, (C) 90
Description: as §1, §2, §3

[23] = PE application, g of AS/ha: (A) 90, (B) 1200, (C) 90
[24] = application 7 days prior to sowing, g AS/ha: (A) 90, (B) 1200, (C) 90

## O=C(Nc1ccc(F)cc1F)c1cccnc1Oc1cccc(C(F)(F)F)c1 [(C) diflufenican, N-(2,4-difluorophenyl)-2-[3-(trifluoromethyl)phenoxy]-3-pyridinecarboxamide]
[1]; irrigation from above
  activity LOLPE (visual scale 0-100%): 20%
[1]; irrigation from below
  activity LOLPE (visual scale 0-100%): 20%
[2]; irrigation from above
  activity AVEFA (visual scale 0-100%): 50%
[2]; irrigation from below
  activity AVEFA (visual scale 0-100%): 30%
[3]; irrigation from above
  activity MATCH (visual scale 0-100%): 0%
[3]; irrigation from below
  activity MATCH (visual scale 0-100%): 50%
[4]
  activity on crop TRZAS (visual scale 0-100%): 5%
[5]; resistant biotype
  activity LOLSS resistant (visual scale 0-100%): 20%
[5]; sensitive biotype
  activity LOLSS sensitive (visual scale 0-100%): 80%
[6]; resistant biotype
  activity STEME resistant (visual scale 0-100%): 50%
[6]; sensitive biotype
  activity STEME sensitive (visual scale 0-100%): 70%
[7]; resistant biotype
  activity MATCH resistant (visual scale 0-100%): 30%
[7]; sensitive biotype
  activity MATCH sensitive (visual scale 0-100%): 30%
[8]
  activity on crop HORVS (visual scale 0-100%): 5%
[9]; sowing depth 5 mm
  activity APESV 5 mm (visual scale 0-100%): 5%
[9]; sowing depth 20 mm
  activity APESV 20 mm (visual scale 0-100%): 5%
[10]; sowing depth 5 mm
  activity MATCH 5 mm (visual scale 0-100%): 60%
[10]; sowing depth 20 mm
  activity MATCH 20 mm (visual scale 0-100%): 70%
[11]; IU soil
  activity LOLPE IU soil (visual scale 0-100%): 45%
[11]; IU/EC73 soil
  activity LOLPE IU/EC73 soil (visual scale 0-100%): 0%
[12]; IU soil
  activity MATCH IU soil (visual scale 0-100%): 40%
[12]; IU/EC73 soil vs IU soil
  Difference of the soil types, MATCH: −5%
[12]; IU/EC73 soil
  activity MATCH IU/EC73 soil (visual scale 0-100%): 35%
[13]; PE application
  activity on crop TRZAS (visual scale 0-100%): 0%
[13]; incorporation into the soil
  activity on crop TRZAS (visual scale 0-100%): 30%
[14]
  activity on crop HORVS (visual scale 0-100%): 5%
[15]
  activity APESV (visual scale 0-100%): 5%
[16]
  activity POAAN (visual scale 0-100%): 5%
[17]
  activity STEME (visual scale 0-100%): 30%
[18]; [23]
  activity LOLPE (visual scale 0-100%): 20%
[18]; [24]
  activity LOLPE (visual scale 0-100%): 10%
[19]; [23]
  activity AVEFA (visual scale 0-100%): 30%
[19]; [24]
  activity AVEFA (visual scale 0-100%): 10%
[20]; PE application
  activity POAAN (visual scale 0-100%): 70%
[20]; incorporation into the soil
  activity POAAN (visual scale 0-100%): 92%
[21]; PE application
  activity STEME (visual scale 0-100%): 50%
[21]; incorporation into the soil
  activity STEME (visual scale 0-100%): 95%
[22]; IU soil
  activity on crop HORVS IU soil (visual scale 0-100%): 0%
[22]; IU/EC73 soil
  activity on crop HORVS IU/EC73 soil (visual scale 0-100%): 0%
